Data set [1] addresses T1, HilD (Salmonella typhimurium, UniProt E1WAC0).
T1 construct: endogenous in cells; host or cells: S. Typhimurium SL1344 strain PhilA-sfGFP
Kind of data set: Whole-cell HilD activity assay (PhilA-sfGFP activation). It counts as cell-based, S. Typhimurium. As to conditions: for activity in PhilA activation assay, in words: CDCA: highest tested concentration 100 μM. How it is done: A whole-cell reporter gene assay was used to quantify HilD transcriptional activity. Strain PhilA-sfGFP and the isogenic ΔhilD PhilA-sfGFP were used for this purpose. Cultures were performed in 1 ml of LB supplemented with 0.3 M NaCl. Compounds at different concentrations or 1% (v/v) DMSO were added to the corresponding tubes. Cultures were incubated at 37°C and 180 rpm for 5 hours. Cells were pelleted, resuspended in 100 μl of PBS, and then transferred into a 96-well black clear-bottom plate (Thermo Fisher Scientific, USA). Fluorescence intensity was measured with a Tecan Spark microplate reader with an excitation wavelength of 485 nm and an emission wavelength of 510 nm. Dose-response curves and IC50 values were calculated using CDD Vault.

Data set [2] has as its target T2, HilD (Salmonella typhimurium, UniProt P0CL08).
T2 construct: His6-SUMO (N, cleaved yes); made in house; host or cells: E. coli C41(DE3)
Kind of data set: nanoDSF thermal stability, HilD. The data set is classed as binding, S. Typhimurium. The protocol: Thermal stability of proteins was determined using nanoDSF, with runs performed on a Prometheus NT.48 (NanoTemper Technologies). A twofold serial dilution series of C26 was prepared in DMSO. C26 was added to HilD or HilC (5 μM) in SEC buffer, giving a final DMSO concentration of 1% (v/v). Samples were incubated for >20 min at r.t. and centrifuged for 2 min prior to loading of standard capillaries (no. PR-C002). Samples were heated from 20° to 80°C with a temperature gradient of 0.5°C min^−1. Melting temperatures were calculated from changes in the fluorescence ratio (350/330 nm), using PR.Stability Analysis v1.0.3 and a temperature range of 40° to 70°C for curve fitting. Data analysis was performed using Prism 8.4 (GraphPad). The change in HilD melting temperature, Tm, was fitted as a function of ligand concentration, using Eqs. 1 and 2 to yield apparent affinity (Kd,app) values Tm{[L]0}=Tm,lower+(Tm,upper−Tm,lower)*(1−α{[L]0}) (1) α{[L]0}=[P]t−Kd−[L]t+{[P]t+[L]t+Kd,app}^2−{4[P]t[L]t}/2[P]t (2) where [P]t and [L]t are the total protein and ligand concentrations, respectively.
On the technique in general: In DSF a fluorescence change marks the thermal transition of the protein.

Data set [3] concerns HeLa cells. Kind of data set: Cytotoxicity, CellTox Green Cytotoxicity Assay, HeLa. It counts as cell-based. The note with it: exposure time 18 h. The protocol:
In vitro toxicity of compound C26 was assessed in HeLa cells (ATCC CCL-2) using the ApoTox-Glo Triplex Assay and in macrophages RAW 264.7-LgBiT using the CellTox Green Cytotoxicity Assay (Promega, USA) according to the manufacturer’s instructions. The screening of in vitro toxicity of the compound analogs was performed with the CellTox Green Cytotoxicity Assay (Promega, USA) according to the manufacturer’s instructions. Cells (10^4 cells per well) were seeded into a 96-well plate and incubated for 24 hours at 37°C, 5% (v/v) CO2. Cells were then treated with the compound at different concentrations or 1% (v/v) DMSO in Dulbecco’s modified Eagle’s medium (DMEM) without phenol red at the desired exposure time. Fluorescence intensity was measured with a TECAN Spark microplate reader. Cytotoxicity [relative fluorescence units (RFU)] and viability (RFU) values were plotted to calculate the TC50 using GraphPad Prism 10.1.1.
Compound concentration (µM) […]
in vitro cytotoxicity of C26 and analogs. Cytotoxicity assessed with CellTox™ Green Cytotoxicity Assay with an exposure time of 18 h. N = 3 biological replicates. Data were plotted and TC50 values were generated with GraphPad Prism 10.1.1.
(1 picture or pasted object on this page, not shown here)

A value given as a limit tells only on which side of the number the result lay.

T1 sequence (E1WAC0 whole entry): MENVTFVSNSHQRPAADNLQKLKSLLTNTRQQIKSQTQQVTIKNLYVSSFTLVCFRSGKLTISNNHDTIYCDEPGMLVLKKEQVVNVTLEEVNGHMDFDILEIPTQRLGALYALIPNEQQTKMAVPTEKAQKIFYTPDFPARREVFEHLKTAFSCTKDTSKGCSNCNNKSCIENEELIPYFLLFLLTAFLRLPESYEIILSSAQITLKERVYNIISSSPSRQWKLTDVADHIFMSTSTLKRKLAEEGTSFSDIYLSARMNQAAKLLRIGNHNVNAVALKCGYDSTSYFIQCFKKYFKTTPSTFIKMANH
T2 sequence (P0CL08 whole entry): as the sequence (E1WAC0 whole entry) above

For `C[C@H](CCC(=O)O)[C@H]1CC[C@H]2[C@@H]3[C@H](O)C[C@@H]4C[C@H](O)CC[C@]4(C)[C@H]3CC[C@]12C` [CDCA, chenodeoxycholic acid, reference compound], the “activity in PhilA activation assay, in words” value in data set [1] is “No activity”.

Take `CN(CC(=O)NCc1ccccc1)Cc1ccc(Br)s1` [SW-C103]: the IC50 in data set [1] was 34.4 µM. The Kd in data set [2] is 28.8 µM. For the same molecule, the TC50 cytotoxicity in data set [3] was > 100 µM.

As to `CN(CC(=O)NCc1ccc2c(c1)OCO2)Cc1ccc(Br)cc1` [SW-C116], half-maximal inhibition in data set [1] (IC50) required 68.3 µM. Moreover, the Kd in data set [2] was > 100 µM. The TC50 cytotoxicity in data set [3] was > 100 µM.

For `Cc1ccc(CN(C)CC(=O)NCc2ccc3c(c2)OCO3)s1` [SW-C153], it took 63.1 µM to reach half-maximal inhibition in data set [1] (IC50). The affinity in data set [2], expressed as Kd, was 8.8 µM. In addition, the TC50 cytotoxicity in data set [3] is > 100 µM.

With `CN(CC(=O)NCc1ccc2c(c1)OCO2)Cc1ccccc1Br` [SW-C165, N-(benzo[d][1,3]dioxol-5-ylmethyl)-2-[(2-bromobenzyl)(methyl)amino]acetamide], in data set [1], the IC50 was > 100 µM. Besides, in data set [2], the Kd is > 100 µM. In data set [3], the TC50 cytotoxicity is > 100 µM.

On to `CN(CC(=O)NCc1ccc(O)c(O)c1)Cc1ccc(Br)s1` [SW-C170, 2-{[(5-Bromothiophen-2-yl)methyl](methyl)amino}-N-(3,4-dihydroxybenzyl)acetamide], for which, in data set [1], the IC50 is > 100 µM and the “activity in PhilA activation assay, in words” value is reported as “complete loss of activity”. The Kd in data set [2] is > 100 µM. Further, the TC50 cytotoxicity in data set [3] is > 100 µM.

Molecule `CN(CC(=O)NCc1ccc2c(c1)OC(F)(F)O2)Cc1ccc(Br)s1` [SW-C182, 2-{[(5-Bromothiophen-2-yl)methyl](methyl)amino}-N-[(2,2-difluorobenzo[d][1,3]dioxol-5-yl)methyl]acetamide] yielded an IC50 in data set [1] of 4.9 µM. Moreover, the Kd in data set [2] came out at 2.7 µM. The molecule also registered a TC50 cytotoxicity in data set [3] of 49.9 µM.

In the case of `CN(CC(=O)NCc1ccc(Cl)cc1)Cc1ccc(Br)s1` [SW-C202, 2-{[(5-Bromothiophen-2-yl)methyl](methyl)amino}-N-(4-chlorobenzyl)acetamide], the midpoint of inhibition in data set [1], the IC50, lay at 3.9 µM. Moreover, the affinity in data set [2], expressed as Kd, was 4.1 µM. In data set [3], this molecule had a TC50 cytotoxicity of 87.3 µM.

With `CN(CC(=O)NCc1ccc2c(c1)OCO2)Cc1ccc(Br)o1` [SW-C210, N-(benzo[d][1,3]dioxol-5-ylmethyl)-2-{[(5-bromofuran-2-yl)methyl](methyl)amino}acetamide], the IC50 in data set [1] was > 100 µM. Further, the Kd in data set [2] is > 100 µM. Also, the TC50 cytotoxicity in data set [3] is > 100 µM.

On to `CN(CC(=O)NCc1cc(Cl)cc(Cl)c1)Cc1ccc(Br)s1` [SW-C250, 2-{[(5-Bromothiophen-2-yl)methyl](methyl)amino}-N-(3,5-dichlorobenzyl)acetamide], for which, in data set [1], the IC50 was 3.2 µM. Moreover, binding in data set [2] was put at a Kd of 1.8 µM. Besides, the TC50 cytotoxicity in data set [3] is > 100 µM.

In the case of `CCCCCCCCCCCCC/C=C\C(=O)O` [c2-HDA, cis-2-hexadecenoic acid, reference compound], the IC50 in data set [1] was determined as 0.21 µM.

Molecule `CCCCCC/C=C\CCCCCCCC(=O)O` [palmitoleic acid, reference compound] registered an IC50 in data set [1] of 25.8 µM.

What is called IC50 is the midpoint of a concentration-inhibition curve. A high value points to lower potency. What is called Kd is the equilibrium constant for the complex coming apart. A low value points to higher affinity.

The record behind these values is paper PMC11988454, “Discovery of synthetic small molecules targeting the central regulator of Salmonella pathogenicity” (Science Advances, 2025).
